Results published in patent publication US20250213558A1, “T-TYPE CALCIUM CHANNEL MODULATORS COMPRISING A PIPERAZINE OR 1,4-DIAZEPANE CORE AND METHODS OF USE THEREOF” (Praxis Precision Medicines, Inc., priority 2022, published 2025).
Like-named read-outs stand apart in the source and are kept apart here.

Biological target: T1, Human Cav3.1 calcium channel (Homo sapiens, UniProt O43497)
T1 construct: expressed in transfected cells; host or cells: HEK-293 natClytin/TASK1+Cav3.1 cell line
Test: Human Cav3.1 calcium channel patch clamp assay (SyncroPatch 384PE; single point and IC50, voltage dependent block)
Format: cell-based
Details: for % Inhibition (Single Point Data): patch clamp
Outline: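 Automated whole-cell patch clamp at room temperature, cells held at −120 mV; 100 ms step to −20 mV (resting block), then 1600 ms at −65 mV and a second −20 mV step (voltage-dependent block), every 15 s. Peak currents averaged over last 3 sweeps; % inhibition relative to nickel-sensitive current.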

[1] = Testing Conc 1.25, HEK-293 natClytin/TASK1+Cav3.1 cell line
[2] = voltage dependent block (VDB), HEK-293 natClytin/TASK1+Cav3.1 cell line, read-out: Cav3.1 IC50
[3] = Testing Conc 1, HEK-293 natClytin/TASK1+Cav3.1 cell line

T1 sequence (O43497 whole entry): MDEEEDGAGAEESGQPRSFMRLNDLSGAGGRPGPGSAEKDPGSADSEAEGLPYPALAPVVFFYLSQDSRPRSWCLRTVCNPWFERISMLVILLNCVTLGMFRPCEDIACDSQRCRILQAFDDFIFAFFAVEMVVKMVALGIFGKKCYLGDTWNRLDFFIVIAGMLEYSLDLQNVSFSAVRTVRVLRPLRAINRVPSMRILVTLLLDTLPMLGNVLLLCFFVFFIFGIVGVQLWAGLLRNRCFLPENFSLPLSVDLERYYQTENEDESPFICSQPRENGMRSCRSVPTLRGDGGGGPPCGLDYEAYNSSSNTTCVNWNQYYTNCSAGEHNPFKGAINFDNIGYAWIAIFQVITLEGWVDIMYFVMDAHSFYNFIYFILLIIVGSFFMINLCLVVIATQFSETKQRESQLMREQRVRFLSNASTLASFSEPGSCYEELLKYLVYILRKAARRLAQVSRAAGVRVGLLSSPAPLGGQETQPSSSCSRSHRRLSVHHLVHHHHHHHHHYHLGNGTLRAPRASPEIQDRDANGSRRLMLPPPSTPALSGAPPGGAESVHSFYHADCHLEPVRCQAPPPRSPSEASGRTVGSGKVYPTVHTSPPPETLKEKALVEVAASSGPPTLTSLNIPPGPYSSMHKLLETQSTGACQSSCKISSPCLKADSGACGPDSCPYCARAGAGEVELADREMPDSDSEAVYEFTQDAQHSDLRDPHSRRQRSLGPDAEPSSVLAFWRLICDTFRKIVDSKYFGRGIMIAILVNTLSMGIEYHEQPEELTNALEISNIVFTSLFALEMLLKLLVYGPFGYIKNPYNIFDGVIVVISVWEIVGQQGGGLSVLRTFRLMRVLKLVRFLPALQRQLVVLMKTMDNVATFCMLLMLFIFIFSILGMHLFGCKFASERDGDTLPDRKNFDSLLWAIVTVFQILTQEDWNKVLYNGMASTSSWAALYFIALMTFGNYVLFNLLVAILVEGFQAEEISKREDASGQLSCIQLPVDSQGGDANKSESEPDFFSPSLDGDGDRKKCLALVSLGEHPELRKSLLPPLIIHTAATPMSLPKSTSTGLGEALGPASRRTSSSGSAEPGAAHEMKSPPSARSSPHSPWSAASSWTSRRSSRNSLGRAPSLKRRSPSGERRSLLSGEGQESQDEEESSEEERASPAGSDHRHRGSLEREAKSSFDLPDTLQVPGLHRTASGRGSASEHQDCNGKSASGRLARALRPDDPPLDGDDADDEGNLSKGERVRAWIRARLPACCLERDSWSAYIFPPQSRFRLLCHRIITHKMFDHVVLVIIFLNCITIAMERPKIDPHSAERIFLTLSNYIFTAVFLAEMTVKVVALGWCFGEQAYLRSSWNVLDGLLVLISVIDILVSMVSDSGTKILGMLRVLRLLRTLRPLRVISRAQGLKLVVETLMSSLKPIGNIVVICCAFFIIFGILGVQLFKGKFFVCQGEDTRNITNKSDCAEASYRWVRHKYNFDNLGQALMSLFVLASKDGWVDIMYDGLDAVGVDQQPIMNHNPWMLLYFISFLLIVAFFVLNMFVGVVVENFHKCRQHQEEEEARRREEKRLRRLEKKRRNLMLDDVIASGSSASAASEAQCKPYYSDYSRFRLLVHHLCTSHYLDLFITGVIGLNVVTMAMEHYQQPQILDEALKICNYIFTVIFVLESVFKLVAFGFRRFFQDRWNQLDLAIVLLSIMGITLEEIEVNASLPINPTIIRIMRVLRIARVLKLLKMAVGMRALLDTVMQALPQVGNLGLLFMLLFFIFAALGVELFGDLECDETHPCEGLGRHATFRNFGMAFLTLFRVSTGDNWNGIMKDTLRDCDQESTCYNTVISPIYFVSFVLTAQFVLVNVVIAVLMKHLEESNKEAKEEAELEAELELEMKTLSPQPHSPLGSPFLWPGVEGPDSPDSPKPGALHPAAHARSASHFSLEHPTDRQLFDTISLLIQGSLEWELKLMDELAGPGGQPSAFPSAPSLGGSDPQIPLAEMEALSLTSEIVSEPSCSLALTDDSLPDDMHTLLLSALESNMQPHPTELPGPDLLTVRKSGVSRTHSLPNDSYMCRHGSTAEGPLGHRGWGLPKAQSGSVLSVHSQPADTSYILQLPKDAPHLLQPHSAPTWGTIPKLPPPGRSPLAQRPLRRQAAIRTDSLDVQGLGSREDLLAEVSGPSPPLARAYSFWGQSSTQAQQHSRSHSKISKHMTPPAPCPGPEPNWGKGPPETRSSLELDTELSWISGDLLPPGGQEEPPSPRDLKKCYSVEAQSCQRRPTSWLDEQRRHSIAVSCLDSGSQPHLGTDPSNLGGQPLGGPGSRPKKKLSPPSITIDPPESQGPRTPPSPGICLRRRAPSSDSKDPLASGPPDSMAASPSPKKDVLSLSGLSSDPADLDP

SMILES | % Inhibition (Single Point Data) [1] | IC50 [2] | % Inhibition (Single Point Data) [3] | IC50
CC(C)(C)NC(=O)CN1C[C@H]2C[C@@H]1CN2CC(=O)NC12CC3CC(CC(C3)C1)C2 [Compound 261] | 70.332% | 518 nM | – | –
Cn1nc(NC(=O)CN2CCN(CC(=O)NC(C)(C)C)CC2)c2ccccc21 [Compound 40] | – | – | 17.386% | –
O=C(CN1CC2CC(C1)N2CC(=O)NC1(C(F)(F)F)CC1)Nc1ccc(F)c(C(F)(F)F)c1 [Compound 251] | 80.59% | – | – | –
O=C(CN1CC2CC(C1)N2CCNC(=O)C1(C(F)(F)F)CCC1)Nc1ccc(F)c(Cl)c1 [Compound 17] | 99.317% | – | – | < 78.2 nM
CC(C)(C)NC(=O)CN1C2CC1CN(CC(=O)Nc1ccc(F)c(Cl)c1)C2 [Compound 216] | 97.034% | – | – | –
O=C(CN1C2CCC1CN(Cc1nc3c(Cl)cc(F)cc3[nH]1)C2)N1CCCCC1 [Compound 78] | 97.937% | – | – | –
CC(C)(C)NC(=O)CN1C[C@@H]2C[C@H]1CN2C(=O)NC12CC3CC(CC(C3)C1)C2 [Compound 304] | 25.21% | 4770 nM | – | –
O=C(CN1C[C@@H]2C[C@H]1CN2CCC1CCC(F)(F)CC1)NC12CC3CC(CC(C3)C1)C2 [Compound 318] | 88.753% | 304 nM | – | –
CC(C(=O)Nc1ccc(F)c(Cl)c1)N1CC2CC(C1)N2CC(=O)NC(C)(C)C (centres unmarked) [Compound 29] | 90.315% | 342 nM | – | –
CC(C)(C)NC(=O)CN1C2CCC1CN(CC(=O)Nc1cc(F)cc(Cl)c1)C2 [Compound 3] | 94.689% | 273 nM | – | –
[2H]C([2H])([2H])C(NC(=O)CN1CC2CC1CN2CC(=O)Nc1cc(F)cc(Cl)c1)(C([2H])([2H])[2H])C([2H])([2H])[2H] (centres unmarked) [Compound 57] | 95.078% | – | – | –
O=C1CCCCN1CCN1C2CCC1CN(Cc1nc3c(Cl)cc(F)cc3[nH]1)C2 [Compound 97] | 79.865% | 367 nM | – | –
COc1cc(NC(=O)CN2CC3CC(C2)N3CC(=O)NC2(C(F)(F)F)CC2)ccc1Cl [Compound 332] | 101.57% | – | – | –
CC1(CCN2C3CC2CN(Cc2nc4c(Cl)cc(F)cc4[nH]2)C3)CCOCC1 [Compound 105] | 73.309% | – | – | –
Cc1cc(CNC(=O)CN2C[C@@H]3C[C@H]2CN3CC(=O)NC(C)(C)C)nn1-c1ccccc1 [Compound 274] | 13.426% | – | – | –
CC(C)(C)NC(=O)CN1C2CCC1CN(CC(=O)NC13CC4CC(CC(C4)C1)C3)C2 [Compound 7] | 64.635% | 904 nM | – | –
CC(C)(C)NC(=O)CN1C[C@@H]2C[C@H]1CN2CC(=O)Nc1ccc(F)c(Cl)c1 [Compound 23] | 91.472% | – | – | –
CC(C)(C)NC(=O)CN1CC2CC1CN2CC(=O)Nc1cccc(Cl)c1 (centres unmarked) [Compound 131] | 83.36% | 2380 nM | – | –
COc1cc(NC(=O)CN2CC3CC(C2)N3CC(=O)NC(C)(C)C)ccc1F [Compound 248] | 64.348% | 530 nM | – | –
O=C(CN1C2CCC1CN(Cc1nc3c(Cl)cc(F)cc3[nH]1)C2)N1CCC(F)(F)CC1 [Compound 81] | 100.06% | – | – | –
Cc1ccc2ccnc(NCC3CCN(CC(=O)NC(C)(C)C)CC3)c2n1 [Compound 102] | 25.803% | 4430 nM | – | –
COc1cc(Cl)cc(NC(=O)CN2C[C@@H]3C[C@H]2CN3CC(=O)NC2(C(F)(F)F)CC2)c1 [Compound 339] | 87.995% | 249 nM | – | –
OC1(CCN2C3CC2CN(Cc2nc4c(Cl)cc(F)cc4[nH]2)C3)CCCC1 [Compound 108] | 79.783% | 338 nM | – | –
Fc1cc(Cl)c2nc(CN3CC4CC(C3)N4CCC3(F)CCCC3)[nH]c2c1 [Compound 113] | 94.677% | – | – | –
CC(C)(C)NC(=O)CN1CCN(CC(=O)Nc2cc(F)cc(Cl)c2)C(=O)C1 [Compound 35] | – | – | 42.822% | –
CC(C)(C)NC(=O)CN1C2CCC1CN(Cc1nc3c(C4CC4)cccc3[nH]1)C2 [Compound 203] | 94.049% | – | – | –
O=C(CN1C[C@@H]2C[C@H]1CN2CC(=O)NC1(C(F)(F)F)CC1)Nc1cc(F)c(F)c(OC(F)F)c1 [Compound 359] | – | 176 nM | – | –

SMILES | % Inhibition (Single Point Data) [1] | IC50 [2] | % Inhibition (Single Point Data) [3] | IC50
CC(C)(C)NC(=O)CN1C2CC1CN(CC(=O)Nc1cc(F)cc(C#N)c1)C2 [Compound 220] | 80.621% | 671 nM | – | –
CC(C)(C)NC(=O)CN1C2CC1CN(CC(=O)Nc1cc(F)ccc1C#N)C2 [Compound 219] | 35.823% | – | – | –
CC(C)(C)NC(=O)CN1C2COCC1CN(Cc1nc3c(Cl)cc(F)cc3[nH]1)C2 [Compound 148] | 11.572% | – | – | –
CC(C)(C)NC(=O)CN1C[C@H]2CC[C@@H]1CN2CC(=O)Nc1cc(F)cc(Cl)c1 [Compound 268] | 85.508% | 356 nM | – | –
COc1ccc(F)cc1NC(=O)CN1CC2CC(C1)N2CC(=O)NC(C)(C)C [Compound 218] | 36.544% | 2890 nM | – | –
Fc1ccc(Cl)c2nc(CN3CC4CC(C3)N4CC(F)(F)C3CCCCC3)[nH]c12 [Compound 176] | 83.015% | 128 nM | – | –
Cc1cc(Cl)cc(NC(=O)CN2CC3CC(C2)N3CC(=O)NC2(C(F)(F)F)CC2)c1 [Compound 336] | 87.863% | – | – | –
CC(c1nc2c(Cl)cc(F)cc2[nH]1)N1CC2CC(C1)N2CC(=O)NC(C)(C)C (centres unmarked) [Compound 200] | 93.175% | – | – | –
CC(C)(C)NC(=O)CN1C2CC(CC(=O)Nc3cc(F)cc(Cl)c3)CC1C2 (centres unmarked) [Compound 373] | – | 5820 nM | – | –
CC(C)(C)C(=O)NCCN1C2CC1CN(Cc1nc3c(Cl)cc(F)cc3[nH]1)C2 [Compound 134] | 94.728% | – | – | –
CC1(OC(=O)CN2C3CC2CN(Cc2nc4c(Cl)cc(F)cc4[nH]2)C3)CC1 [Compound 140] | 79.539% | 283 nM | – | –
CC1(NC(=O)CN2C3CCC2CN(Cc2nc4c(Cl)cc(F)cc4[nH]2)C3)COC1 [Compound 82] | 98.209% | – | – | –
CC(C)(C)CCCN1C2CC1CN(Cc1nc3c(Cl)cc(F)cc3[nH]1)C2 [Compound 107] | 101.43% | – | – | < 78.2 nM
Cc1cc(Cl)cc(NC(=O)CN2CC3CC(C2)N3CC(=O)NC(C)(C)C)c1 [Compound 305] | 101.69% | 199 nM | – | –
CC1(C)CN(C(=O)CN2C[C@@H]3C[C@H]2CN3CC(=O)NC23CC4CC(CC(C4)C2)C3)C1 [Compound 317] | 48.399% | 1080 nM | – | –
CN(C(=O)CN1C2CCC1CN(Cc1nc3c(Cl)cc(F)cc3[nH]1)C2)C(C)(C)C(=O)O [Compound 87] | 7.971% | – | – | –
Fc1ccc(Cl)c2nc(CN3CCN(CC(F)(F)C4CCCCC4)CC3)[nH]c12 [Compound 154] | 75.83% | 525 nM | – | –
CC(C)(C)NC(=O)CN1C2CCC1CN(Cc1c[nH]c(-c3ccccc3)n1)C2 [Compound 197] | 45.013% | 1540 nM | – | –
CC(C)(C)NC(=O)CN1C2CC1CN(CC(=O)Nc1cc(F)ccc1Cl)C2 [Compound 213] | 27.718% | – | – | –
CC(C)(C)NC(=O)CN1C2CC1CN(CC(=O)Nc1cccc(C(F)F)c1)C2 [Compound 15] | 73.866% | 308 nM | – | –
O=C(CN1CC2CC(C1)N2CC(=O)NC1(C(F)(F)F)CC1)Nc1cc(F)c(F)c(OC(F)F)c1 [Compound 361] | – | 127 nM | – | –
CC(C(=O)Nc1ccc(F)c(Cl)c1)N1CC2CC(C1)N2CC(=O)NC1(C(F)(F)F)CC1 (centres unmarked) [Compound 30] | 63.42% | 705 nM | – | –
CC1(C(=O)NCCN2C3CC2CN(Cc2nc4c(Cl)cc(F)cc4[nH]2)C3)CCC1 [Compound 137] | 96.095% | – | – | < 78.2 nM
CC(C(=O)NC(C)(C)C)N1C2CC1CN(CC(=O)Nc1ccc(F)c(Cl)c1)C2 (centres unmarked) [Compound 260] | 80.656% | 274 nM | – | –
O=C(CN1CC2CC(C1)N2CC(=O)NC1(C(F)(F)F)CC1)Nc1cc(F)c(F)c(Cl)c1 [Compound 349] | – | < 78.2 nM | – | –
COC(=O)C(C)(C)N(C)C(=O)CN1C2CCC1CN(Cc1nc3c(Cl)cc(F)cc3[nH]1)C2 [Compound 85] | 66.404% | 375 nM | – | –
Fc1cc(Cl)c2nc(CN3CCN(Cc4cccc(Cl)c4)CC3)[nH]c2c1 [Compound 67] | 83.039% | 490 nM | – | –
